This is an account of results in patent publication US20260085070A1, “HETEROCYCLIC CBL-B INHIBITORS FOR THE TREATMENT OF CANCER” (HOTSPOT THERAPEUTICS, INC., priority 2022, published 2026).

Some results are limits rather than exact numbers.

The target of the experiment is T1, Cbl-b (Homo sapiens, UniProt Q13191).
T1 construct: Biotin (biotinylated protein)
T1 sequence (Q13191 10-426): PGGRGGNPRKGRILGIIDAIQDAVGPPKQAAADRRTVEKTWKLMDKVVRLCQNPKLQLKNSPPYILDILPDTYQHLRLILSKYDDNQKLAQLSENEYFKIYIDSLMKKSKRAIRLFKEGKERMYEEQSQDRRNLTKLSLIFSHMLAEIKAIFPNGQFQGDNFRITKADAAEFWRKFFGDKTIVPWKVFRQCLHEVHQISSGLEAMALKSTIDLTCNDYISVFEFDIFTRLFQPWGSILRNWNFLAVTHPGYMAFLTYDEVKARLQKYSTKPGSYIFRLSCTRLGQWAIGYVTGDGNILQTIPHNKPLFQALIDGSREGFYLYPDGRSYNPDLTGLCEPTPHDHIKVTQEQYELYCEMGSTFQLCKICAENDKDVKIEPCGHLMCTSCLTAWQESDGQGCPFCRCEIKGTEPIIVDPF
As to the kind of experiment: Cbl-b LCK Ub TR-FRET assay. In kind it is biochemical. Conditions: Biotin-Cbl-b, His-LCK; no LCK as low control, DMSO as high control; IC50s binned A through C; read-out: CBL-B_TR-FRET_AVG_IC50. The procedure:
Compounds are 3-told serially diluted in DMSO in a 384-well polypropylene plate (e.g., #P-05525-BC; Labcyte) to generate a source plate with 10 concentrations of each compound, top concentration=2 mM. 80 nL of DMSO or compounds are transferred to each well of a black 384-well ProxiPlate (e.g., #6008260; PerkinElmer) using a Labcyte Echo. 1× assay buffer (50 mM HEPES pH7.0, 100 mM NaCl, 0.01% BSA, 0.01% Triton-X100, 1 mM DTT), 2× enzyme solution (16 nM Biotin-Cbl-b or 12 nM Biotin-c-Cbl in 1× assay buffer), 2× kinase mixture (120 nM His-LCK, 1 mM ATP, 10 mM MgCl2 in assay buffer) and 2.33× detection mixture (4.66× solution 1:163 nM Anti-HA-D2 antibody (e.g., #610HADAB; PerkinElmer), 27.96 nM Streptavidin-EU (e.g., #AD0062; PerkinElmer), 1.398 mM EDTA in 1× assay buffer+4.66× solution 2: […] UBE2D2/Methylated-HA-Ubiquitin thioester adduct (e.g., BostonBiochem) in 1× assay buffer) are prepared. […] of 2× enzyme solution are added to each well containing compound, briefly centrifuged to mix, and incubated for 60 min at room temperature. […] of 2× kinase mixture is added, briefly centrifuged to mix, and incubated for 90 min. at room temperature. […] of detection mixture is added to all wells and briefly centrifuged before incubating for 20 min at room temperature. Plates are read for TR-FRET using an Envision at excitation 340 nm, emission at 615 and 665 nm, 4 flashes per well. IC50 is generated using no LCK as the low control and DMSO as the high control. Compound IC50s were binned into A through C as follows: A indicates <100 nM, B indicates 100 nM-500 nM, and C indicates >500 nM.
With `Cn1cnnc1-c1cc(F)ccc1-c1cccc(-n2cc3c(C(F)(F)F)cc(CNCC4(O)CCC4)cn3c2=O)c1` [Compound 1], the IC50 is under 100 nM.
In the case of `C[C@H]1CCCN(Cc2cc(C(F)(F)F)c3cn(-c4cc(-c5ccc(F)cc5-c5nncn5C)cc(C5CC5)n4)c(=O)n3c2)C1` [Compound 2], the IC50 was over 500 nM.
As to `C[C@H]1CCCN(Cc2cc(C(F)(F)F)c3cn(-c4cc(-c5ccc(F)cc5-c5nncn5C)cc(Cl)n4)c(=O)n3c2)C1` [Compound 3], the IC50 was over 500 nM.
In the case of `C[C@H]1CCCN(Cc2cc(C(F)(F)F)c3cn(-c4cc(-c5ccc(F)cc5-c5nncn5C)cc(Br)n4)c(=O)n3c2)C1` [Compound 4] it was over 500 nM.
